Measured values from US10435697B2, “Recombinant expression system that senses pathogenic microorganisms” (priority 2014, dated 2019).
Ends that are not written are not given here.

Legend:
[1] = system: CqsS/CAI-1 quorum-sensing phosphorelay system of V. cholerae; test: CAI-1 sensing by two-plasmid system (CqsS, LuxU, LuxO; GFP under pQrr4); format: cell-based, Vibrio cholerae; details: LuxO induced by arabinose
Text: In the test construct the pBAD promoter drives LuxO. […] This is due to the downregulation of pQrr4 promoter by the CqsS cascade originating form V. cholera. In contrast, no alteration of GFP expression was observed when arabinose was present, but CAI-1 was absent. […] The system is inducible by arabinose in order to add an additional level of control.
In the next step, a double plasmid system, with the CqsS (SEQ ID NO 6), LuxU (SEQ ID NO 7) and LuxO (SEQ ID NO 8) genes expressed on one plasmid and GFP (SEQ ID NO) under pQrr4 promoter (SEQ ID NO 19) on another was generated. Thus, this system comprises the CAI-1 sensor module, in which phosphorylated LuxO activates the Qrr4 promoter. In the test construct the pBAD promoter drives LuxO, which is inducible by arabinose.
In other words, the system changes its fluorescence with different concentrations of CAI-1.

[2] = system: V. cholerae; details: previously shown (Da Silva 2008; Moghaddam 2012; Yaraksa 2014); cited from earlier work
[3] = system: E. coli Top10; test: Growth curves (OD600) of E. coli Top10 after induced expression of the peptide from a plasmid; format: cell-based, Escherichia coli
Text: To evaluate the activity of Microcin S (mcsS) and Microcin immunity protein (mcsI) in E. coli Top10 cells five different plasmids were constructed (FIG. 10).
Moreover, also the effect of Microcin immunity protein (mcsI) in the presence of Microcin S was studied. For this, the mcsI gene was introduced into the pBbE8K+McsS-YebF-I and pBbE8K+McsS-I plasmids resulting in pBbE8K+McsI+McsS-YebF-II and pBbE8K+McsI+McsS-II, respectively. In these constructs, mcsS expression is controlled by an araC pBAD activator-promoter (SEQ ID NO), rendering Microcin S expression inducible by L-arabinose. In contrast, mcsI expression is constitutively ON when using the rrnB promoter (SEQ ID NO 28).
Furthermore, also the effect of Microcin whole cascade in E. coli Top10 growing in liquid culture with 0.125% arabinose and without arabinose after being transformed with construct 5 of FIG. 12 was studied.
For example, in the case of CM11 (P3) the P3 gene was cloned under the arabinose promoter (pBAD) in the pBbE8K vector resulting in the pBbE8K+P3 plasmid. In other words, P3 expression in this construct is controlled by an araC PBAD activator-promoter, rendering P3 expression inducible by L-arabinose.
In addition, in order to characterize the lysis activity in E. coli, the lysis E7 gene was cloned under the tetracycline promoter (pTet) in the pBbA2C vector resulting in the pBbA2C+E7 plasmid.

[4] = system: pathogenic E. coli; details: Yaraksa et al. 2014; cited from earlier work
[5] = system: E. coli Nissile; format: cell-based, Escherichia coli; details: LB broth, 18-20 h at 37° C., DMSO control
Protocol: FIG. 17 MIC of the synthetic peptide CM11 (P3) against E. coli Nissile. […] As a control only DMSO was used.
(§1) Moreover, a minimum inhibitory concentration (MIC) assay was conducted using CM11 (P3). The medium used for the broth microdilution test was LB Broth and the cells were V. cholera A1522-Rugose-GFP and E. coli Nissile strains. Overnight cultures were transferred into 5 ml of LB and were grown at 37° C. for 2-3 h. To approximate the density of 0.5 McFarland standard, this suspension with the inoculum concentration of 108 colony forming units (CFU/ml) was then diluted to 106 CFU/ml with the LB broth. Peptide P3 stock solution of 1000 μg/ml was prepared using DMSO. Serial two-fold dilutions of the peptide (P3) with the following concentration (2-100 μg/ml) were prepared with LB broth and placed in 96-well microtiter plates and the lowest concentration inhibiting visible growth after 18-20 h at 37° C. was recorded as MIC (see FIGS. 16 and 17).

[6] = system: V. cholerae (A1522 Rugose-GFP); format: cell-based, Vibrio cholerae; details: LB broth, 18-20 h at 37° C., absorbance and GFP fluorescence monitored, DMSO control
Protocol: […]. The target cells were effectively killed at an MIC of 50 μM. As a control only DMSO was used. As the target cells express GFP embedded into its chromosome, the GFP fluorescence (B) along with the absorbance (growth) (A) was monitored in this experiment.
as §1

[7] = system: E. coli wt; test: Microbroth dilution assay of purified Microcin S on E. coli; format: cell-based, Escherichia coli
Protocol: (§2) In addition, the Microcin S peptide was purified to test its efficacy on V. cholerae and E. coli. […] Subsequently, the cells were pelleted by centrifugation at 4000 g for 20 min and lysed using a sonicator. Purification of Microcin S was carried out using Qiagen Ni-NTA fast start kit. The eluate was dialysed using Slide-A-Lyzer dialysis cassette and a 2 KDa cutoff (Life Technologies) for 4 hrs in 1×PBS. The dialysed samples were concentrated by ultra filtration using a molecular mass cutoff membrane (Amicon Ultra-15 Centrifugal Filter Unit, Millipore). As the estimated size of the protein is approximately 12 kDa, the first concentration was done using a 30 kDa cutoff membrane where the flow-through was collected and subsequently passed through a 3 kDa cutoff membrane. The resulting retentate was collected and the concentration was quantified using Quant-IT protein assay kit (Life Technologies).
(§3) The induced sample expressed has Microcin S (FIG. 13B) and the fluorescence reading from the Quant-it assay was 1135, which was close to a concentration of 200 ng/μl, calculated from the standard curve (FIG. 13A). […] After the presence of Microcin S was confirmed from the purified sample, a microbroth dilution assay was carried out to measure the minimum inhibitory concentration of purified Microcin S on V. cholerae and E. coli. […]

[8] = system: V. cholerae; test: Microbroth dilution assay of purified Microcin S on V. cholerae; format: cell-based, Vibrio cholerae
Protocol: as §2, §3

[9] = expression induced with 0.125% L-arabinose (pBAD), vs un-induced

Molecule: CCCCCCCCCC(=O)[C@@H](O)CC [CAI-1, (S)-3-hydroxytridecan-4-one]
- GFP expression on addition of CAI-1 [1]: a drop in the GFP expression was observed

Molecule: CM15 (KWKLFKKIGAVLKVL-NH2)
- activity against V. cholerae [2]: show inhibitory activity

Molecule: G12.21 (RRVSRRPMRRYRSRRPRRLV)
- activity against V. cholerae [2]: effectively control the growth of V. cholerae both in vitro and in vivo

Molecule: G14.15 (GRSRWRRVSRRFMRR)
- activity against V. cholerae [2]: effectively control the growth of V. cholerae both in vitro and in vivo

Molecule: Lysis E7 (MKKITGIILLLLAAIILAACQANYIRDVQGGTVSPSSTAELTGVETQ; Secretory peptide)
- time to lyse E. coli ([3]; 200 nM atc): ≤ 4 h
- OD600 of host cell after induction (lysis) ([3]; pBbA2C+E7, 200 nM anhydrotetracycline, vs un-induced): reduced significantly due to the lysis

Molecule: Magainin 2 (GIGKFLHSAKKFGKAFVGEIMNS; listed as Xenopus laevis)
- activity against V. cholerae [2]: good killing efficiency
- activity against pathogenic E. coli [4]: good killing efficiency

Molecule: McsS-YebF
- growth (OD600) of host cell after induction [3, 9]: complete growth inhibition

Molecule: WKLFKKILKVL-NH2 [CM11]
- growth (OD600) of host cell after induction ([3]; pBbE8K+P3, induced with 0.2% L-arabinose, vs un-induced, listed as CM11 (P3)): reduces the growth of E. coli
- growth (OD600) of host cell after induction ([3]; pBbE8K+P3, induced with 0.2% L-arabinose, vs un-induced, listed as P3): reduced significantly
- activity against V. cholerae [2]: show inhibitory activity
- MIC [5]: 25 µM
- MIC [6]: 50 µM

B1: Microcin S (protein, listed as Escherichia coli)
chain: MSNIRELSFDEIALVSGGNANSNYEGGGSRSRNTGARNSLGRNAPTHIYSDPSTVKCANAVFSGMVGGAIKGGPVGMTRGTIGGAVIGQCLSGGGNGNGGGNRAGSSNCSGSNVGGTCSR
- growth (OD600) of host cell after induction [3, 9]: reduced OD600 readings
- growth (OD600) of host cell after induction ([3]; expression induced with 0.125% L-arabinose (pBAD), vs un-induced, listed as McsS): complete growth inhibition
- inhibitory activity [7]: has inhibitory activity
- Minimal inhibition concentration ([7]; LB broth, 4 hrs, OD): 100 ng/µL
- inhibitory activity [8]: has inhibitory activity
- Minimal inhibition concentration ([8]; LB broth, 4 hrs, OD): 100 ng/µL
